Measured values as given in patent US20070259888A1, “Novel Compounds” (ASTRAZENECA AB, priority 2006, published 2007).
pEC50: −log10 of the molar value.

How the values were obtained:
[1] = target: T1, hM1 (human Muscarinic receptor subtype 1) (Homo sapiens, UniProt P11229); assay: Human M1 calcium mobilization FLIPR assay; type: cell-based; settings: CHO cells expressing hM1, FLIPR; for pEC50: read-out: hM1EC50; for Emax: read-out: hM1Emax
T1 construct: expressed in transfected cells; host or cells: CHO cells (chinese hamster ovary cells, ATCC)
T1 sequence (P11229 1-460): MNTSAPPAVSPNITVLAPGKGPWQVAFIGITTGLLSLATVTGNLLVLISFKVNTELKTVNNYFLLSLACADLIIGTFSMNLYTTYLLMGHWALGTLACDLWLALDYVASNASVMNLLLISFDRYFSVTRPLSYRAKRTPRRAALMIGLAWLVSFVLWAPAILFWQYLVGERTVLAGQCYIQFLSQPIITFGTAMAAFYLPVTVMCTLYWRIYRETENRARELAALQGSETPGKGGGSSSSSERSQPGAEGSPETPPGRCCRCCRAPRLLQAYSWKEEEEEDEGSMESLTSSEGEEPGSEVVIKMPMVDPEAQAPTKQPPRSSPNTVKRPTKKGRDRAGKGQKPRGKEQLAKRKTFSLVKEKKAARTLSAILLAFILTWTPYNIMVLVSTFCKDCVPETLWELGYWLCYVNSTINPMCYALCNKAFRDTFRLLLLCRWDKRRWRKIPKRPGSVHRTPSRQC
Method: The compound activity in the present invention (EC50 or IC50) was measured using a 384 plate-based imaging assay that monitors drug induced intracellular Ca^2+ release in whole cells. Activation of hM1 (human Muscarinic receptor subtype 1, gene bank access NM_000738), rM1 (rat Muscarinic receptor subtype 1, gene bank access NM_080773), hM3 (human Muscarinic receptor subtype 3, gene bank access NM_000740NM_000740) and hM5 (human Muscarinic receptor subtype 5, gene bank access NM_0121258) receptors expressed in CHO cells (chinese hamster ovary cells, ATCC) was quantified in a Molecular Devices FLIPR II™ instrument as an increase in fluorescent signal. Inhibition of hM3 and hM5 by compounds was determined by the decrease in fluorescent signal in response to 2 nM acetylcholine activation.
CHO cells were plated in 384-black polylysine coated plate (Costar) at 8000 cells/well/50 μl for 24 hours or 4000 cells/well for 48 hours in a humidified incubator (5% CO2 and 37° C.) in DMEM/F12 medium without selection agent. Prior to the experiment the cell culture medium was removed from the plates by inversion. A loading solution of 30 μl of Hank's balanced salt solution, 10 mM Hepes and 2.5 mM Probenicid at Ph 7.4 (Cat no. 311-520-VL, Wisent) with 2 μM calcium indicator dye (FLUO-3AM, Molecular Probes F14202) was added to each well. Plates were incubated at 37° C. for 60 minutes prior to start the experiment. The incubation was terminated by washing the cells four times in assay buffer, leaving a residual 25 μl buffer per well. Cell plates were then transferred to the FLIPR, ready for compound additions.
The day of experiment, acetylcholine and compounds were diluted in three-fold concentration range (10 points serial dilution) for addition by FLIPR instrument. For all calcium assays, a baseline reading was taken for 30 seconds followed by the addition of 12.5 μl (25 μl for hM1 and rM1) of compounds, resulting in a total well volume of 37.5 μl (50 μl for hM1 and rM1). Data were collected every 1.6 seconds for 300 seconds. For hM3 and hM5 an additional 12.5 μl of acetylcholine (2 nM final) was added at 300 seconds. After this addition of acetylcholine (producing a final volume of 50 μl), the FLIPR continued to collect data every 2 seconds for 240 seconds. The fluorescence emission was read using filter 1 (emission 520-545 nm) by the FLIPR on board CCD camera.
Calcium mobilization output data were calculated as the maximal relative fluorescence unit (RFU) minus the minimal value for both compound and agonist reading frame (except for hM1 and rM1 using only the maximal RFU). Data were analyzed using sigmoidal fits of a non-linear curve-fitting program (XLfit version 5.0.6 from ID Business Solutions Limited, Guildford, UK). All EC50 and IC50 values are reported as geometric means of ‘n’ independent experiments.

[2] = target: T2, human M2 receptor (human Muscarinic receptor subtype 2) (Homo sapiens, UniProt P08172); assay: hM2 receptor GTPγS binding; type: biochemical; settings: CHO membranes expressing hM2, GTPγ35S binding; for pEC50: read-out: hM2_EC50
T2 construct: purchased Perkin-Elmer RBHM2M; host or cells: Chinese hamster ovary cells (CHO), membranes
T2 sequence (P08172 1-466): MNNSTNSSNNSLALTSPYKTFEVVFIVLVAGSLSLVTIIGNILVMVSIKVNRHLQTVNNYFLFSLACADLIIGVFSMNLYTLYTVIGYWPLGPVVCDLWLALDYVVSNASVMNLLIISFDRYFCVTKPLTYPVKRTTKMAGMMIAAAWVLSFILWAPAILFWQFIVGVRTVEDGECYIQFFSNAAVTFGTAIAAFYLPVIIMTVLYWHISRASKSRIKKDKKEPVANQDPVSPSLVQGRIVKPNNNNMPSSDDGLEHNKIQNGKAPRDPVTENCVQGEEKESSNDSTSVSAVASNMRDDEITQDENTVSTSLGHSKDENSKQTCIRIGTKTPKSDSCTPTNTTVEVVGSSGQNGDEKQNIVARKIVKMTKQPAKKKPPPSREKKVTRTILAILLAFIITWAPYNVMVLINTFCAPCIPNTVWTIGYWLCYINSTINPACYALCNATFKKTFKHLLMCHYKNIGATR
Method: hM2 Receptor GTPyS Binding
Membranes produced from Chinese hamster ovary cells (CHO) expressing the cloned human M2 receptor (human Muscarinic receptor subtype 2, gene bank access NM_000739), were obtained from Perkin-Elmer (RBHM2M). The membranes were thawed at 37° C., passed 3 times through a 23-gauge blunt-end needle, diluted in the GTPγS binding buffer (50 mM Hepes, 20 mM NaOH, 100 mM NaCl, 1 mM EDTA, 5 mM MgCl2, pH 7.4, 100 μM DTT). The EC50, IC50 and Emax of the compounds of the invention were evaluated from 10-point dose-response curves (three fold concentration range) done in 60 μl in 384-well non-specific binding surface plate (Corning). Ten microliters from the dose-response curves plate (5× concentration) were transferred to another 384 well plate containing the following: 10 μg of hM2 membranes, 500 μg of Flashblue beads (Perkin-Elmer) and GDP in a 25 μl volume. An additional 15 μl containing 3.3× (55000 dpm) of GTPγ^35S (0.4 nM final) were added to the wells resulting in a total well volume of 50 μl. Basal and maximal stimulated GTPγ^35S binding was determined in absence and presence of 30 μM of acetylcholine agonist. The membranes/beads mix were pre-incubated for 15 minutes at room temperature with 25 μM GDP prior to distribution in plates (12.5 μM final). The reversal of acetylcholine-induced stimulation (2 μM final) of GTPγ^35S binding was used to assay the antagonist properties (IC50) of the compounds. The plates were incubated for 60 minutes at room temperature with shaking, then centrifuged at 2000 rpm for 5 minutes. The radioactivity (cpm) was counted in a Trilux (Perkin-Elmer).
Values of EC50, IC50 and Emax were obtained using sigmoidal fits of a non-linear curve-fitting program (XLfit version 5.0.6 from ID Business Solutions Limited, Guildford, UK) of percent-stimulated GTPγ^35S binding vs. log (molar ligand).
All EC50 and IC50 values are reported as geometric means of ‘n’ independent experiments. […] The IC50 was the concentration of the compound of the invention at which 50% inhibition of acetylcholine GTPγ^35S binding stimulation has been observed.

Compound	pEC50 [1]	Emax [1] [%]	Emax [2] [%]	pEC50 [2]
CCOC[C@@H]1CCCN(C[C@H]2CCCC[C@@H]2NC(=O)c2ccc(CNS(=O)(=O)C3CC3)cc2)C1	7.96	102	40	5.84
O=C(N[C@H]1CCCC[C@@H]1CN1CCCC(c2ccccc2)C1)c1ccc(-n2cccn2)nc1 (stereo partly shown)	6.41	105		
CCOC[C@@H]1CCCN(C[C@H]2CCCC[C@@H]2NC(=O)CNC(C)=O)C1	6.49	91		
CCO[C@@H]1CCCN(C[C@H]2CCCC[C@@H]2NC(=O)c2cnccn2)C1	5.82	76		
CCOCC1CCCN(C[C@@H]2CCCC[C@H]2NC(=O)c2ccc(-c3cnco3)cc2)C1 (mixture of isomers)	7.77	97	25	5.26
CCCCC1CCCN(C[C@@H]2CCCC[C@H]2NC(=O)CCc2ccc(Cl)cc2)C1 (mixture of isomers)	6.76	86	38	5.91
CCCCC1CCCN(C[C@@H]2CCCC[C@H]2NC(=O)c2ccc(CN(CC)CC)cc2)C1 (mixture of isomers)	6.99	94	2	6.78
C=CCOCC1CCCN(C[C@@H]2CCCC[C@H]2NC(=O)c2ccc(CN3CCN(C)CC3)cc2)C1 (mixture of isomers) [Trans-(±)-N-[2-({3-[(Allyloxy)methyl]piperidin-1-yl}methyl)cyclohexyl]-4-[(4-methylpiperazin-1-yl)methyl]benzamide]	7.31	80	19	6.41
CCOC[C@@H]1CCCN(C[C@H]2CCCC[C@@H]2NC(=O)c2ccc(CN(C(C)=O)C(C)=O)cc2)C1 [4-[(diacetylamino)methyl]-N-((1S,2R)-2-{[(3R)-3-(ethoxymethyl)piperidin-1-yl]methyl}cyclohexyl)benzamide]	6.99	91	18	5.48
C=CCO[C@@H]1CCCN(C[C@H]2CCCC[C@@H]2NC(=O)c2ccc(-n3cccn3)nc2)C1 [N-((1S,2R)-2-{[(3R)-3-(allyloxy)piperidin-1-yl]methyl}cyclohexyl)-6-(1H-pyrazol-1-yl)nicotinamide]	7.48	97	50	5.35
CCOC[C@@H]1CCCN(C[C@H]2CCCC[C@@H]2NC(=O)c2cnc(C)cc2C)C1 [N-((1S,2R)-2-{[(3R)-3-(ethoxymethyl)piperidin-1-yl]methyl}cyclohexyl)-4,6-dimethylnicotinamide]	6.30	54		
CCOC[C@@H]1CCCN(C[C@H]2CCCC[C@@H]2NC(=O)c2ccc(-n3cnnn3)cc2)C1 [N-((1S,2R)-2-{[(3R)-3-(ethoxymethyl)piperidin-1-yl]methyl}cyclohexyl)-4-(1H-tetrazol-1-yl)benzamide]	8.05	95	27	5.92
CCOC[C@@H]1CCCN(C[C@H]2CCCC[C@@H]2NC(=O)c2ccc3c(c2)OCCN3C)C1 [N-((1S,2R)-2-{[(3R)-3-(ethoxymethyl)piperidin-1-yl]methyl}cyclohexyl)-4-methyl-3,4-dihydro-2H-1,4-benzoxazine-7-carboxamide]	6.82	85	0	< 4.52
CCOC[C@@H]1CCCN(C[C@H]2CCCC[C@@H]2NC(=O)c2ccc(CNS(C)(=O)=O)cc2)C1 [N-((1S,2R)-2-{[(3R)-3-(ethoxymethyl)piperidin-1-yl]methyl}cyclohexyl)-4-{[(methylsulfonyl)amino]methyl}benzamide]	7.70	95	34	5.87
CCOC[C@@H]1CCCN(C[C@H]2CCCC[C@@H]2NC(=O)c2cc3nc(C)cc(C)n3n2)C1 [N-((1S,2R)-2-{[(3R)-3-(ethoxymethyl)piperidin-1-yl]methyl}cyclohexyl)-5,7-dimethylpyrazolo[1,5-a]pyrimidine-2-carboxamid]	7.66	82	0	< 4.52
CCOC[C@@H]1CCCN(C[C@H]2CCCC[C@@H]2NC(=O)c2ccc(N3CCCC3)nc2)C1 [N-((1S,2R)-2-{[(3R)-3-(ethoxymethyl)piperidin-1-yl]methyl}cyclohexyl)-6-pyrrolidin-1-ylnicotinamide]	7.39	91	60	6.97
CCOC[C@@H]1CCCN(C[C@H]2CCCC[C@@H]2NC(=O)c2ccccc2)C1 [N-((1S,2R)-2-{[(3R)-3-(ethoxymethyl)piperidin-1-yl]methyl}cyclohexyl)benzamide]	6.92	74	34	5.72
CCOC[C@@H]1CCCN(C[C@H]2CCCC[C@@H]2NC(=O)C2CCc3ccccc3O2)C1 (stereo partly drawn) [N-((1S,2R)-2-{[(3R)-3-(ethoxymethyl)piperidin-1-yl]methyl}cyclohexyl)chromane-2-carboxamide]	7.26	98	54	6.24
